molecular target: T1, human TRPM8 (Homo sapiens, UniProt Q7Z2W7); test: Luminescence readout assay for measuring intracellular calcium, icilin activation; assay type: cell-based; details: CHO cells expressing human TRPM8, aequorin luminescence, 1 μM icilin activation; read-out: hTRPM8 IC50
T1 construct: expressed in transfected cells; host or cells: Chinese hamster ovary (CHO) cells, T-REx tetracycline-inducible system, co-transfected with aequorin
How it was run: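 The read-out was luminescence reporting intracellular calcium, recorded by a CCD-based luminometer. Compounds were preincubated for 2.5 min before agonist challenge with 1 μM icilin. Human TRPM8 was expressed in a stable T-REx CHO line, induced with 0.5 μg/mL tetracycline the day before.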

T1 sequence (Q7Z2W7 whole entry): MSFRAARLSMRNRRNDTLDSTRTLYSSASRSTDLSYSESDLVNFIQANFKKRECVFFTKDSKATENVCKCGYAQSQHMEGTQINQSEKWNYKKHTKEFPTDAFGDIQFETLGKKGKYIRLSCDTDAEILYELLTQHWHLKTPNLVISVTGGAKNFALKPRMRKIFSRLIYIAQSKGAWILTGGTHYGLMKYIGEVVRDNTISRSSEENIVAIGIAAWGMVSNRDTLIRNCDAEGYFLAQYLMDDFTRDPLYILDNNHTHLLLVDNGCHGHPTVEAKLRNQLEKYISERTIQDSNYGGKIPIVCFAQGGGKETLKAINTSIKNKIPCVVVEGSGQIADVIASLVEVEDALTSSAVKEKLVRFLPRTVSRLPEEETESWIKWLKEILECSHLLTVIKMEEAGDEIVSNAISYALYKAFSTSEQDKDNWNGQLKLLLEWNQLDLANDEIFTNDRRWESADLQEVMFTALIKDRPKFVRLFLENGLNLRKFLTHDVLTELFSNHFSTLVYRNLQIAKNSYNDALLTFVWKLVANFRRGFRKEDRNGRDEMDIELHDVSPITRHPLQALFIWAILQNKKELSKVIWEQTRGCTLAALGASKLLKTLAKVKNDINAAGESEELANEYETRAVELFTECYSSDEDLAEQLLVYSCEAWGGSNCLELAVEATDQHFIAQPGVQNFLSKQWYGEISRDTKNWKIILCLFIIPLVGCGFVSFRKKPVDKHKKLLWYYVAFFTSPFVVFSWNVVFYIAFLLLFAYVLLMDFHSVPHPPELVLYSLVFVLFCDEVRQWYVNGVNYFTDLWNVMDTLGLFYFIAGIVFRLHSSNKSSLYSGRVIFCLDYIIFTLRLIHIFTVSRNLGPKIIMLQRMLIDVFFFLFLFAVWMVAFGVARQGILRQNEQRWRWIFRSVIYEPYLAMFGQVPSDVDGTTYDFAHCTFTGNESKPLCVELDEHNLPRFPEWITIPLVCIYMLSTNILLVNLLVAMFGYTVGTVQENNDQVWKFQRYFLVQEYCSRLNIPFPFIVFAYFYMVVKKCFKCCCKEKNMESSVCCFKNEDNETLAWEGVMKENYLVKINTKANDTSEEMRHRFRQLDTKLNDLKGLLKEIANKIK

SMILES	IC50 [nM]
O=C(N[C@@H](c1ccc(C(F)(F)F)cc1)c1ncccc1F)c1ccc[nH]c1=O [Example 72, (S)-N-((3-fluoropyridin-2-yl)(4-(trifluoromethyl)phenyl)methyl)-2-oxo-1,2-dihydropyridine-3-carboxamide]	167
O=C(N[C@@H](c1ccc(C(F)(F)F)cc1)c1ncccc1F)c1ccc2[nH]c(=O)ccc2c1 [Example 104, (S)-N-((3-fluoropyridin-2-yl)(4-(trifluoromethyl)phenyl)methyl)-2-oxo-1,2-dihydroquinoline-6-carboxamide]	6.2
O=C(N[C@@H](c1ccc(C(F)(F)F)cc1)c1ncsc1Br)c1ccc2ncccc2c1 [Example 259, (S)-N-((5-bromothiazol-4-yl)(4-(trifluoromethyl)phenyl)methyl)quinoline-6-carboxamide 2,2,2-trifluoroacetate]	128
Cc1cccnc1[C@@H](NC(=O)c1ccc2[nH]c(=O)oc2c1)c1ccc(C(F)(F)F)cc1 [Example 313, (S)-N-((3-methylpyridin-2-yl)(4-(trifluoromethyl)phenyl)methyl)-2-oxo-2,3-dihydrobenzo[d]oxazole-6-carboxamide]	25.9
O=C(N[C@@H](c1ccc(C(F)(F)F)cc1)c1ncccc1C(F)(F)F)c1ccc2nccc(Cl)c2c1 [Example 116, (S)-4-chloro-N-((4-(trifluoromethyl)phenyl)(3-(trifluoromethyl)pyridin-2-yl)methyl)quinoline-6-carboxamide 2,2,2-trifluoroacetate]	42.9
O=C(NC(c1ccc(C(F)(F)F)cc1)c1ncccc1F)c1ccc2nccnc2c1 (stereo not shown) [Example 202, N-((3-fluoropyridin-2-yl)(4-(trifluoromethyl)phenyl)methyl)quinoxaline-6-carboxamide]	35.2
O=C(N[C@@H](c1ccc(C(F)(F)F)cc1)c1ncccc1C(F)(F)F)C1CCOC1 (stereo partly drawn) [Example 225, N-((S)-(4-(trifluoromethyl)phenyl)(3-(trifluoromethyl)pyridin-2-yl)methyl)THF-3-carboxamide]	487
CC(=O)Oc1ccc(C(=O)N[C@@H](c2ccc(C(F)(F)F)cc2)c2ncccc2F)cc1N [Example 431, (S)-2-Amino-4-(((3-fluoropyridin-2-yl)(4-(trifluoromethyl)phenyl)methyl)carbamoyl)phenyl Acetate]	56.4
O=C(N[C@@H](c1ccc(C(F)(F)F)cc1)c1ncccc1F)c1ccn2nnnc2c1 [Example 308, (S)-N-((3-fluoropyridin-2-yl)(4-(trifluoromethyl)phenyl)methyl)tetrazolo[1,5-a]pyridine-7-carboxamide]	26.9
Cc1nccn1CC(=O)N[C@@H](c1ccc(C(F)(F)F)cc1)c1ncccc1C(F)(F)F [Example 160, (S)-2-(2-methyl-1H-imidazol-1-yl)-N-((4-(trifluoromethyl)phenyl)(3-(trifluoromethyl)pyridin-2-yl)methyl)acetamide]	3320
CNS(=O)(=O)c1ccc(C(=O)N[C@@H](c2ccc(C(F)(F)F)cc2)c2ncccc2F)cc1 [Example 74, (S)-N-((3-fluoropyridin-2-yl)(4-(trifluoromethyl)phenyl)methyl)-4-(N-methylsulfamoyl)benzamide]	85.3
O=C(CC1CCOC1)N[C@@H](c1ccc(C(F)(F)F)cc1)c1ncccc1C(F)(F)F (stereo partly drawn) [Example 157, 2-(THF-3-yl)-N-((S)-(4-(trifluoromethyl)phenyl)(3-(trifluoromethyl)pyridin-2-yl)methyl)acetamide]	716
CC(C)c1ccc(C(=O)N[C@@H](c2ccc(C(F)(F)F)cc2)c2ncccc2C(F)(F)F)cc1 [Example 127, (S)-4-isopropyl-N-((4-(trifluoromethyl)phenyl)(3-(trifluoromethyl)pyridin-2-yl)methyl)benzamide]	584
O=C(N[C@@H](c1ccc(OC(F)(F)F)c(F)c1)c1ncccc1F)c1ccc(=O)n(C2COC2)c1 [Example 304, (S)-N-((3-fluoro-4-(trifluoromethoxy)phenyl)(3-fluoropyridin-2-yl)methyl)-1-(oxetan-3-yl)-6-oxo-1,6-dihydropyridine-3-carboxamide]	14.4
Cn1cc(C(=O)N[C@@H](c2ccc(OC(F)(F)F)c(F)c2)c2ccccc2F)ccc1=O [Example 296, (S)-N-((3-fluoro-4-(trifluoromethoxy)phenyl)(2-fluorophenyl)methyl)-1-methyl-6-oxo-1,6-dihydropyridine-3-carboxamide]	23.1
O=C1CCc2cc(C(=O)N[C@@H](c3ccc(OC(F)(F)F)c(F)c3)c3ncccc3F)ccc2N1 [Example 351, (S)-N-((3-fluoro-4-(trifluoromethoxy)phenyl)(3-fluoropyridin-2-yl)methyl)-2-oxo-1,2,3,4-tetrahydroquinoline-6-carboxamide]	15.9
O=C(N[C@@H](c1ccc(OC(F)(F)F)c(F)c1)c1ncccc1F)c1ccc[nH]c1=O [Example 416, (S)-N-((3-fluoro-4-(trifluoromethoxy)phenyl)(3-fluoropyridin-2-yl)methyl)-2-oxo-1,2-dihydropyridine-3-carboxamide]	54

SMILES	IC50 [nM]
O=C(N[C@@H](c1ccc(C(F)(F)F)cc1)c1ncccc1F)c1ccc2nccn2c1 [Example 253, (S)-N-((3-fluoropyridin-2-yl)(4-(trifluoromethyl)phenyl)methyl)imidazo[1,2-a]pyridine-6-carboxamide 2,2,2-trifluoroacetate]	11.4
CC#Cc1cccnc1[C@@H](NC(=O)c1ccc(OC)nc1)c1ccc(C(F)(F)F)cc1 [Example 96, (S)-6-methoxy-N-((3-(prop-1-yn-1-yl)pyridin-2-yl)(4-(trifluoromethyl)phenyl)methyl)nicotinamide]	37.6
Cc1ncoc1C(=O)NC(c1ccc(C(F)(F)F)cc1)c1ncccc1F (stereo not shown) [Example 221]	105
O=C(N[C@@H](c1ccc(C(F)(F)F)cc1)c1ncccc1Cl)c1ccc(=O)[nH]c1 [Example 248, (S)-N-((3-chloropyridin-2-yl)(4-(trifluoromethyl)phenyl)methyl)-6-oxo-1,6-dihydropyridine-3-carboxamide 2,2,2-trifluoroacetate]	11.9
O=C(N[C@@H](c1ccc(C(F)(F)F)cc1)c1ncccc1C(F)(F)F)c1ccnnc1 [Example 212, (S)-N-((4-(trifluoromethyl)phenyl)(3-(trifluoromethyl)pyridin-2-yl)methyl)pyridazine-4-carboxamide]	81.5
O=C(O)c1cncc(C(=O)N[C@@H](c2ccc(C(F)(F)F)cc2)c2ncccc2C(F)(F)F)c1 [Example 226, (S)-5-(((4-(trifluoromethyl)phenyl)(3-(trifluoromethyl)pyridin-2-yl)methyl)carbamoyl)nicotinic acid]	2310
O=C1CCC(C(=O)N[C@@H](c2ccc(C(F)(F)F)cc2)c2ncccc2C(F)(F)F)CN1 (stereo partly drawn) [Example 65, 6-oxo-N-((S)-(4-(trifluoromethyl)phenyl)(3-(trifluoromethyl)pyridin-2-yl)methyl)piperidine-3-carboxamide]	245
CS(=O)(=O)c1ccc(C(=O)N[C@@H](c2ccc(C(F)(F)F)cc2)c2ncccc2F)cc1 [Example 217, (S)-N-((3-fluoropyridin-2-yl)(4-(trifluoromethyl)phenyl)methyl)-4-(methylsulfonyl)benzamide]	147
O=C1CCc2cc(C(=O)N[C@@H](c3ccc(OC(F)(F)F)cc3)c3ncccc3F)ccc2N1 [Example 352, (S)-N-((3-fluoropyridin-2-yl)(4-(trifluoromethoxy)phenyl)methyl)-2-oxo-1,2,3,4-tetrahydroquinoline-6-carboxamide]	18.8
CN(C)c1cccc(C(=O)N[C@@H](c2ccc(C(F)(F)F)cc2)c2ncccc2C(F)(F)F)c1 [Example 186, (S)-3-(dimethylamino)-N-((4-(trifluoromethyl)phenyl)(3-(trifluoromethyl)pyridin-2-yl)methyl)benzamide]	49.2
COC(C)(C)C(=O)N[C@@H](c1ccc(C(F)(F)F)cc1)c1ncccc1C(F)(F)F [Example 240, (S)-2-methoxy-2-methyl-N-((4-(trifluoromethyl)phenyl)(3-(trifluoromethyl)pyridin-2-yl)methyl)propanamide]	81
CCCc1cccnc1[C@@H](NC(=O)c1ccc(=O)[nH]c1)c1ccc(C(F)(F)F)cc1 [Example 267, (S)-6-Oxo-N-((3-propylpyridin-2-yl)(4-(trifluoromethyl)-phenyl)methyl)-1,6-dihydropyridine-3-carboxamide]	9.9
CNC(=O)c1ccc(C(=O)N[C@@H](c2ccc(C(F)(F)F)cc2)c2ncccc2F)nc1 [Example 273, (S)—N^2-((3-Fluoropyridin-2-yl)(4-(trifluoromethyl)phenyl)-methyl)-N^5-methylpyridine-2,5-dicarboxamide 2,2,2-trifluoroacetate]	16.1
O=C(N[C@@H](c1ccc(C(F)(F)F)cc1)c1ncccc1F)c1c[nH]c(=O)cn1 [Example 319, (S)-N-((3-fluoropyridin-2-yl)(4-(trifluoromethyl)phenyl)methyl)-5-oxo-4,5-dihydropyrazine-2-carboxamide]	132
O=C(N[C@@H](c1ccc(C(F)(F)F)cc1)c1ncccc1C(F)(F)F)c1cccs1 [Example 138, (S)-N-((4-(trifluoromethyl)phenyl)(3-(trifluoromethyl)pyridin-2-yl)methyl)thiophene-2-carboxamide]	46.4
Cc1cccnc1[C@@H](NC(=O)c1ccc(=O)n(C)c1)c1ccc(OC(F)(F)F)cc1 [Example 360, (S)-1-methyl-N-((3-methylpyridin-2-yl)(4-(trifluoromethoxy)phenyl)methyl)-6-oxo-1,6-dihydropyridine-3-carboxamide]	20
O=C(N[C@@H](c1ccc(C(F)(F)F)cc1)c1ncccc1C(F)(F)F)c1ccc(O)cn1 [Example 64, (S)-5-hydroxy-N-((4-(trifluoromethyl)phenyl)(3-(trifluoromethyl)pyridin-2-yl)methyl)picolinamide]	20

Source: US8710043B2, “TRPM8 antagonists and their use in treatments” (Amgen Inc., priority 2011, dated 2014)
